Experimental findings from patent publication US20260294769A1, “ASCORBIC ACID DERIVATIVES AND COSMETIC THEREOF” (SEIWA KASEI COMPANY, LIMITED, priority 2023, published 2026) are described below.

Read-outs that look alike come from different tables or passages of the source.

Data set [1] concerns Normal human dermal fibroblasts (NHDF). In words: Hyaluronic acid production promoting effect (ELISA of hyaluronic acid in supernatant). It is filed as cell-based. As to conditions: 10 mM or less, 48 hours, control group set to 100%, N=3. As to the method:
Normal human dermal fibroblasts (NHDF) were prepared in D-MEM containing 5% (v/v) fetal bovine serum to a cell density of 2.5×10^4 cells/well, and then pre-incubated on a 96-well plate for 24 hours. After removing the medium, samples prepared in serum-free D-MEM were added to each well and cultured for 48 hours. After the culture was completed, the amount of hyaluronic acid in the supernatant was quantified by ELISA. Measurements were performed in triplicate (N=3).
The amount of hyaluronic acid produced when the sample was measured at a concentration of 10 mM or less was compared with that of the control group, and the results (% values when the control group is set to 100%) are shown in Tables 18 to 20 based on the following criteria.

The nature of data set [2]: Stability Test-2: odor of cream stored at 50° C. The format is physicochemical. Particulars: 10 panelists. The text has this: • Evaluation was made by 10 panelists according to the following criteria. • 3: Almost odorless. • 2: There is a slight strange odor. • 1: A strong odor is detected. • Based on the results of the above evaluation, the following classification was made: • ◯: Total score of 10 panelists is 25 or more • Δ: Total score of 10 panelists is 16-24 • x: The total score of 10 panelists is 15 or less
(§1) For each of the samples of Synthesis Examples 9 to 32, (a) and (b) shown in Table 12 were each heated and mixed. After cooling, (c) shown in Table 12 was added to prepare a cream with a pH of 7 or 9. […] The odor and coloration were also evaluated according to the same method and criteria as in Test Example 1. The results regarding the residual rate are shown in Tables 13 and 14, and the results regarding the odor and coloration are shown in Tables 15 and 16.

Data set [3] in a line: Stability Test-2: coloration of cream stored at 50° C. The format is physicochemical. Particulars: 10 panelists.
Excerpt: • Evaluation was made by 10 panelists according to the following criteria. • 3: Almost no change compared to immediately after preparation. • 2: Color changes compared to immediately after preparation. • 1: Strongly colored compared to immediately after preparation. • Based on the results of the above evaluation, the following classification was made:
as §1

A short description of data set [4]: Stability Test-2: residual rate in cream of pH 7 or 9 stored at 50° C. The format is physicochemical. As to the method: as §1
Data set [5] can be described thus: Stability Test-1: residual rate of 1% aqueous solutions stored at 50° C. (HPLC). It is filed as physicochemical. Particulars: water, 1% aqueous solution; for remaining at 336 h: after 2 weeks, read-out: Residual Rate; for remaining at 672 h: after 4 weeks. As to the method:
For each of the samples of Synthesis Examples 1 to 6, 1% aqueous solutions were adjusted to pH 3, 5, 7, 8, and 9 with a dilute potassium hydroxide aqueous solution, and then placed in 50 mL screw tubes and sealed. […] Furthermore, the odor and coloration of the samples adjusted to pH 7 were evaluated based on the following methods and criteria, and the results are shown in Table 11.
• ⊚: 80% or more • ◯: 50% or more, less than 80% • Δ: 30% or more, less than 50% • x: Less than 30%

Setting [6] is: cream pH 7, 50° C., after 2 weeks, 20160 min.
Setting [7] is: cream pH 7, 50° C., after 4 weeks, 40320 min.
Setting [8] is: cream pH 9, 50° C., after 2 weeks, 20160 min.
The mark [9] stands for this setting: cream pH 9, 50° C., after 4 weeks, 40320 min.

Consider `CCCCCCCCCCCCCCCC(=O)OC[C@H](O)[C@H]1OC(=O)C(OP(=O)(O)O)=C1O` [Ascorbyl phosphate 3Na palmitate, reference compound], for which, in data set [1], the “Hyaluronic acid production-promoting effect” value is recorded as “± (<100%)”.
Consider `CCCCCCCCC(CCCCCC)C(=O)OC[C@H](OC(=O)C(CCCCCC)CCCCCCCC)[C@H]1OC(=O)C(OC(=O)C(CCCCCC)CCCCCCCC)=C1OC(=O)C(CCCCCC)CCCCCCCC` (stereo partly shown) [Ascorbyl tetrahexyldecanoate, reference compound], for which the Odor result in data set [2] (after 2 weeks) is “◯ (Total score of 10 panelists is 25 or more)”; in data set [2] (after 4 weeks) it was “Δ (Total score of 10 panelists is 16-24)”. Moreover, the Coloration entry is “◯ (Total score of 10 panelists is 25 or more)” in data set [3] (after 2 weeks) and “Δ (Total score of 10 panelists is 16-24)” in data set [3] (after 4 weeks). Also, the “Residual Rate” value in data set [4] (setting [6]) is listed as “∘ (85% or more, less than 95%)”; in data set [4] (setting [7]) it was “x (Less than 85%)”; in data set [4] (setting [8]) it was “∘ (85% or more, less than 95%)”; in data set [4] (setting [9]), “x (Less than 85%)”.
Take `O=C1O[C@H]([C@@H](O)CO)C(OCC(O)CO)=C1OCC(O)CO` (stereo partly shown) [Bisglyceryl ascorbic acid, reference compound]: the remaining at 336 h in data set [5] (pH 3, 50° C.) was at least 80%; in data set [5] (pH 5, 50° C.), at least 80%; in data set [5] (pH 7, 50° C.), below 30%; in data set [5] (pH 8, 50° C.) it was below 30%; in data set [5] (pH 9, 50° C.), below 30%. The remaining at 672 h in data set [5] (pH 3, 50° C.) is at least 80%; in data set [5] (pH 5, 50° C.), at least 80%; in data set [5] (pH 7, 50° C.), below 30%; in data set [5] (pH 8, 50° C.), below 30%; in data set [5] (pH 9, 50° C.) it was below 30%.
Take `CCCC(=O)OCC(O)C1OC(=O)C2=C1OCCCCO2` (stereo not shown) [Synthesis Example 9, 6-O-butanoyl-2,3-O-(1,4-butanediyl) ascorbic acid]: the figures for the Odor entry in data set [2] (after 2 weeks) and in data set [2] (after 4 weeks) were “◯ (Total score of 10 panelists is 25 or more)” and “Δ (Total score of 10 panelists is 16-24)”, respectively. Further, the Coloration entry in data set [3] (after 2 weeks) and in data set [3] (after 4 weeks) was “◯ (Total score of 10 panelists is 25 or more)” throughout. The “Hyaluronic acid production-promoting effect” value in data set [1] is recorded as “++ (120%<)”. In addition, the “Residual Rate” value in data set [4] (setting [6]), in data set [4] (setting [7]), in data set [4] (setting [8]) and in data set [4] (setting [9]) was “⊚ (95% or more)” throughout.
In the case of `CCCCCCCC(=O)OCC(O)C1OC(=O)C2=C1OCCCCO2` (stereo not shown) [Synthesis Example 11, 6-O-octanoyl-2,3-O-(1,4-butanediyl) ascorbic acid], the Odor result is on record as “◯ (Total score of 10 panelists is 25 or more)” in data set [2] (after 2 weeks) and “Δ (Total score of 10 panelists is 16-24)” in data set [2] (after 4 weeks). In addition, the Coloration result in data set [3] (after 2 weeks) and in data set [3] (after 4 weeks) was “◯ (Total score of 10 panelists is 25 or more)” in each case. Moreover, in data set [1], the “Hyaluronic acid production-promoting effect” value is on record as “++ (120%<)”. The “Residual Rate” value in data set [4] (setting [6]) is “⊚ (95% or more)”; in data set [4] (setting [7]), “⊚ (95% or more)”; in data set [4] (setting [8]) it was “⊚ (95% or more)”; in data set [4] (setting [9]), “∘ (85% or more, less than 95%)”.
Take `CCCCCCCCCCCCCCCC(=O)OCC(OC(=O)CCCCCCCCCCCCCCC)C1OC(=O)C2=C1OCCCCO2` (stereo not shown) [Synthesis Example 16, 5,6-O-dipalmitoyl-2,3-O-(1,4-butanediyl) ascorbic acid]: the Odor entry in data set [2] (after 2 weeks) is recorded as “◯ (Total score of 10 panelists is 25 or more)”; in data set [2] (after 4 weeks) it was “Δ (Total score of 10 panelists is 16-24)”. In addition, the Coloration entry in data set [3] (after 2 weeks) and in data set [3] (after 4 weeks) was “◯ (Total score of 10 panelists is 25 or more)” throughout. Moreover, in data set [1], the “Hyaluronic acid production-promoting effect” value is recorded as “++ (120%<)”. Besides, the “Residual Rate” value in data set [4] (setting [6]), in data set [4] (setting [7]), in data set [4] (setting [8]) and in data set [4] (setting [9]) was “⊚ (95% or more)” each time.
As for `CC(C)CCCCCCCCCCCCCCC(=O)OC[C@H](OC(=O)CCCCCCCCCCCCCCC(C)C)[C@H]1OC(=O)C2=C1OCCCCO2` [Synthesis Example 18, 5,6-O-diisostearoyl-2,3-O-(1,4-butanediyl) ascorbic acid], the Odor entry in data set [2] (after 2 weeks) is on record as “◯ (Total score of 10 panelists is 25 or more)”; in data set [2] (after 4 weeks), “Δ (Total score of 10 panelists is 16-24)”. The Coloration result in data set [3] (after 2 weeks) and in data set [3] (after 4 weeks) was “◯ (Total score of 10 panelists is 25 or more)” in each case. Further, the “Hyaluronic acid production-promoting effect” value in data set [1] is given as “++ (120%<)”. Further, the “Residual Rate” value in data set [4] (setting [6]), in data set [4] (setting [7]), in data set [4] (setting [8]) and in data set [4] (setting [9]) was “⊚ (95% or more)” throughout.
For the molecule `CCCCCCCC(=O)OC[C@H](OC(=O)CCC)[C@H]1OC(=O)C2=C1OCCCCO2` [Synthesis Example 19, 5-O-butanoyl-6-O-octanoyl-2,3-O-(1,4-butanediyl) ascorbic acid], the Odor entry in data set [2] (after 2 weeks) is listed as “◯ (Total score of 10 panelists is 25 or more)”; in data set [2] (after 4 weeks) it was “Δ (Total score of 10 panelists is 16-24)”. For the same molecule, the Coloration result in data set [3] (after 2 weeks) and in data set [3] (after 4 weeks) was “◯ (Total score of 10 panelists is 25 or more)” each time. The “Residual Rate” value in data set [4] (setting [6]), in data set [4] (setting [7]), in data set [4] (setting [8]) and in data set [4] (setting [9]) was “⊚ (95% or more)” in each case.
As to `CCCCCCCCCCCCCCCC(=O)OCC(OC(=O)CCC)C1OC(=O)C2=C1OCCCO2` (stereo not shown) [Synthesis Example 30, 5-O-butanoyl-6-O-palmitoyl-2,3-O-(1,3-propanediyl) ascorbic acid], the values for the Odor entry in data set [2] (after 2 weeks) and in data set [2] (after 4 weeks) were “◯ (Total score of 10 panelists is 25 or more)” and “Δ (Total score of 10 panelists is 16-24)”, respectively. Moreover, the Coloration result in data set [3] (after 2 weeks) and in data set [3] (after 4 weeks) was “◯ (Total score of 10 panelists is 25 or more)” in each case. Moreover, the “Residual Rate” value in data set [4] (setting [6]), in data set [4] (setting [7]), in data set [4] (setting [8]) and in data set [4] (setting [9]) was “⊚ (95% or more)” throughout.
Regarding `CC(C)CCCCCCCCCCCCCCC(=O)OCC(OC(=O)CCCCCCCCCCCCCCC(C)C)C1OC(=O)C2=C1OCCO2` (stereo not shown) [Synthesis Example 32, 5,6-O-diisostearoyl-2,3-O-(1,2-ethanediyl) ascorbic acid], the results for the Odor entry in data set [2] (after 2 weeks) and in data set [2] (after 4 weeks) were “◯ (Total score of 10 panelists is 25 or more)” and “Δ (Total score of 10 panelists is 16-24)”, respectively. Also, the Coloration entry in data set [3] (after 2 weeks) and in data set [3] (after 4 weeks) was “◯ (Total score of 10 panelists is 25 or more)” in each case. For the same molecule, the “Residual Rate” value in data set [4] (setting [6]), in data set [4] (setting [7]), in data set [4] (setting [8]) and in data set [4] (setting [9]) was “⊚ (95% or more)” each time.
Regarding `CC1(C)OCC(C2OC(=O)C3=C2OCCCCO3)O1` (stereo not shown) [Synthesis Example 35, 5,6-O-isopropylidene-2,3-O-(1,4-butanediyl) ascorbic acid], the “Hyaluronic acid production-promoting effect” value in data set [1] is recorded as “++ (120%<)”.
Turning to `CC1(C)OCC(C2OC(=O)C3=C2OCCCO3)O1` (stereo not shown) [Synthesis Example 36, 5,6-O-isopropylidene-2,3-O-(1,3-propanediyl) ascorbic acid], the “Hyaluronic acid production-promoting effect” value in data set [1] was “++ (120%<)”.
Take `O=C1OC(C2COC(c3ccccc3)O2)C2=C1OCCCO2` (stereo not shown) [Synthesis Example 38, 5,6-O-(phenylmethylene)-2,3-O-(1,3-propanediyl) ascorbic acid]: in data set [1], the “Hyaluronic acid production-promoting effect” value is listed as “++ (120%<)”.
